Laboratory results: ChEMBL document CHEMBL1201862, “PubChem BioAssay data set” (2004)
The source made the active and inactive calls.

Columns and labels:
[1] = target: T1, Trace amine-associated receptor 1 (Homo sapiens, UniProt Q96RJ0); assay: Counterscreen for agonists of the human trace amine associated receptor 1 (hTAAR1): Fluorescence-based cell-based high throughput dose response assay to identify hTAAR1 agonist that also desensitize TAAR1 receptor response.; format: functional
[2] = target: T1, Trace amine-associated receptor 1; assay: Fluorescence-based cell-based high throughput dose response assay to identify agonists of the human trace amine associated receptor 1 (TAAR1).; format: functional
cells [3] = format: functional, cell-based
cells [4] = format: functional, cell-based; remark: listed apart in the source
HeLa = assay: HeLa cell cytotoxicity, dose response, cytotoxicity control, ATP luminescence, cherry-pick samples (AID 687004); format: functional, cell-based; conditions: Homo sapiens
[5] = Late stage assay provider results from the probe development effort to identify inhibitors of the Plasmodium falciparum M17 Leucine Aminopeptidase (M17LAP): radiolabel-based cell-based dose response assay to identify compounds that inhibit P. falciparum growth in RBCs Set 2.; format: functional
A549 = assay: A549 cell toxicity, dose response, cytotoxicity control, plate reader, cherry-pick samples (AID 687028); format: functional, cell-based; conditions: Homo sapiens
Vero = assay: Vero cell toxicity, dose response, cytotoxicity control, plate reader, cherry-pick samples (AID 687020); format: functional, cell-based; conditions: Chlorocebus sabaeus
[6] = A Cell-Based Confirmatory Screen for Compounds that Inhibit VEEV, TC-83 (8).; format: functional
[7] = A Cell-Based Confirmatory Screen for Compounds that Inhibit VEEV, TC-83 (6).; format: functional
cells [8] = format: functional, cell-based; conditions: HEK-CNG
[9] = inhibitors of control Renilla luciferase reporter, dose response, counter-screen for Shn3 3'UTR targeting project, Clone20-Shn3RL cells, dual-Glo, cherry-pick, set 2 (AID 720724); format: functional, cell-based; conditions: Dual-Go Shn3RL
[10] = reduction of Shn3 3'UTR firefly luciferase signal, dose response, Schnurri-3 inhibitor project, cell-based, Clone20 osteoblasts, cherry-pick, set 2 (AID 720490); format: functional;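 further: actives lower the luminescence signal as inhibitors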
Galanin receptor type 3 = target: T2, Galanin receptor type 3 (Homo sapiens, UniProt O60755); assay: Fluorescence-based cell-based primary high throughput dose response assay to identify antagonists of the Galanin Receptor 3 (GalR3).; format: functional
T2 sequence (O60755 whole entry): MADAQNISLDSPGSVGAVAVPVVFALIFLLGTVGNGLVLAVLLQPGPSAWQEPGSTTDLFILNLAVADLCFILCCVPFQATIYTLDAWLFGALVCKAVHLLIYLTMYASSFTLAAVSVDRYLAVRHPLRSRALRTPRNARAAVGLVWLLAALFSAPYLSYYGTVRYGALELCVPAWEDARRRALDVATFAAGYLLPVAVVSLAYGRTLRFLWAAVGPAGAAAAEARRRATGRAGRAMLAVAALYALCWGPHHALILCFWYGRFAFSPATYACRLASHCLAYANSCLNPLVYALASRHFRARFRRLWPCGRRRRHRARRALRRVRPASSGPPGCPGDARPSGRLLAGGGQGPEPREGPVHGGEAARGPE

[11] = HepG2 cell cytotoxicity, dose response, cytotoxicity control for Shn3 inhibitor project, CellTiter-Glo, cherry-picked (AID 624134); format: functional, cell-based
[12] = Shn3 3'UTR reporter inhibitors, dose response, cell-based, Clone20 osteoblasts, firefly luciferase, cherry-picked (AID 624132); format: functional;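 further: firefly luciferase luminescence from reporter carrying the Shn3 3'UTR in osteoblasts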
[13] = control 3'UTR Renilla luciferase suppression, dose response, counter-screen for Shn3 inhibitor project, cell-based, Clone20-Shn3RL, cherry-picked (AID 624133); format: functional
[14] = growth suppression of beta-catenin-knockout colon cells, dose response, cell-based, HCT116, human colon tumor (AID 1045); format: functional;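 further: HCT116 colon tumor cells with beta catenin knocked out; cells exposed to compound for 60 hours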
[15] = target: Metabotropic glutamate receptor 3 (Rattus norvegicus, UniProt P31422); assay: mGlu3 negative allosteric modulator potency, dose response, HEK/GIRK cells, thallium flux, rat (AID 651839); format: functional
Chain of Metabotropic glutamate receptor 3 (P31422 whole entry): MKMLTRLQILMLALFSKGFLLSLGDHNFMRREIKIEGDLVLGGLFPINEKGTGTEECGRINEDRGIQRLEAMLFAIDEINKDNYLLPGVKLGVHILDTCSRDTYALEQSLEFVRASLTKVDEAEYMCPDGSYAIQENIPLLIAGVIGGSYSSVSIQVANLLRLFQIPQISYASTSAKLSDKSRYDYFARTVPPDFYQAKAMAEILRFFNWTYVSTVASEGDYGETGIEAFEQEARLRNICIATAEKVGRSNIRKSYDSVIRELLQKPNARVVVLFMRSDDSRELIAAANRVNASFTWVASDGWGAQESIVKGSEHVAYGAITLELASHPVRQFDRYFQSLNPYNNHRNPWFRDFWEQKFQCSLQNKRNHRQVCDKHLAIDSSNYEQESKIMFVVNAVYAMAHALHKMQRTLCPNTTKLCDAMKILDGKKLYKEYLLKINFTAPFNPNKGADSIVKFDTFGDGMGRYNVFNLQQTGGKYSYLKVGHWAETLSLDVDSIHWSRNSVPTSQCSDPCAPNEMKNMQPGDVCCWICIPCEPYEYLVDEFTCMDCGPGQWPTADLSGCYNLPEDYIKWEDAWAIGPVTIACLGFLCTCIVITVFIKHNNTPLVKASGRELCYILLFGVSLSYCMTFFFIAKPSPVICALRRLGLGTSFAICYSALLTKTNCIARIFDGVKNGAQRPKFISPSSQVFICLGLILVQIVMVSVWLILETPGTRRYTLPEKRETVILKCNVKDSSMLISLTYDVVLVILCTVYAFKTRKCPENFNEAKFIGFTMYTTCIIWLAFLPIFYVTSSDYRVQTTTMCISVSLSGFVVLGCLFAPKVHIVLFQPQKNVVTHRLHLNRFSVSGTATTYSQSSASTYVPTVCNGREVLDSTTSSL

[16] = target: Heat shock protein HSP 90-alpha (Homo sapiens, UniProt P07900); format: functional, organism-based
[17] = target: ATP-dependent molecular chaperone HSP82 (Candida albicans (strain WO-1) (Yeast), UniProt C4YTQ8); assay: loss of DOC-induced GRE-beta-galactosidase reporter signal, dose response, Hsp90 inhibitor project, S. cerevisiae, luminescence (AID 2400); format: functional, cell-based;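 further: beta-galactosidase luminescence from glucocorticoid response element reporter as proxy for Hsp90 function; inhibitor potency where signal loss means Hsp90 inhibition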
Chain of ATP-dependent molecular chaperone HSP82 (C4YTQ8 whole entry): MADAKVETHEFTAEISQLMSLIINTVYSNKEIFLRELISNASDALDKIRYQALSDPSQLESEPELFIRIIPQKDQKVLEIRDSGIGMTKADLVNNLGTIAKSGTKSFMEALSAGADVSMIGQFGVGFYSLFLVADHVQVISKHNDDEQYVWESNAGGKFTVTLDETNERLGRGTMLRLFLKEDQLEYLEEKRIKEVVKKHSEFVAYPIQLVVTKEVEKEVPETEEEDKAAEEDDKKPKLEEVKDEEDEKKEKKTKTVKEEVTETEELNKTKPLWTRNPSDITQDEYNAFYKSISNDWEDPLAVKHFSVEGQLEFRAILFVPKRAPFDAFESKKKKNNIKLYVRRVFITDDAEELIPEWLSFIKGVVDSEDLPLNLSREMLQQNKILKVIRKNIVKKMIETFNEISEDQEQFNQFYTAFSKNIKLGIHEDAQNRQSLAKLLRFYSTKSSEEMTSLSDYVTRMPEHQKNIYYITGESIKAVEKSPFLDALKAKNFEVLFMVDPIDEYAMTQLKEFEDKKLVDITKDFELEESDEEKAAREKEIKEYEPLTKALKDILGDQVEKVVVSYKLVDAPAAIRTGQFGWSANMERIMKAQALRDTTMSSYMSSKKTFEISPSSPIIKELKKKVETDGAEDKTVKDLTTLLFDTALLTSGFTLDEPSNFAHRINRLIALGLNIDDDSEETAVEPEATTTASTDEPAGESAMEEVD

[18] = C. albicans growth with fluconazole, confirmation, fluorescence, retest (AID 2467); format: functional, cell-based
[19] = target: T3, Serine/threonine-protein phosphatase (Candida dubliniensis (strain CD36 / CBS 7987 / NCPF 3949 / NRRLY-17841) (Yeast), UniProt B9W6M3); assay: calcineurin pathway inhibitors in yeast reporter, dose response, S. cerevisiae, CDRE-lacZ, luminescence, secondary (AID 2388); format: functional, cell-based;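 further: yeast reporter cells carrying a calcineurin-responsive lacZ construct stimulated with calcium chloride; luminescent beta-galactosidase reporter signal in whole cells rather than isolated phosphatase activity; potency for inhibition where a drop in reporter signal means calcineurin blockade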
T3 sequence (B9W6M3 whole entry): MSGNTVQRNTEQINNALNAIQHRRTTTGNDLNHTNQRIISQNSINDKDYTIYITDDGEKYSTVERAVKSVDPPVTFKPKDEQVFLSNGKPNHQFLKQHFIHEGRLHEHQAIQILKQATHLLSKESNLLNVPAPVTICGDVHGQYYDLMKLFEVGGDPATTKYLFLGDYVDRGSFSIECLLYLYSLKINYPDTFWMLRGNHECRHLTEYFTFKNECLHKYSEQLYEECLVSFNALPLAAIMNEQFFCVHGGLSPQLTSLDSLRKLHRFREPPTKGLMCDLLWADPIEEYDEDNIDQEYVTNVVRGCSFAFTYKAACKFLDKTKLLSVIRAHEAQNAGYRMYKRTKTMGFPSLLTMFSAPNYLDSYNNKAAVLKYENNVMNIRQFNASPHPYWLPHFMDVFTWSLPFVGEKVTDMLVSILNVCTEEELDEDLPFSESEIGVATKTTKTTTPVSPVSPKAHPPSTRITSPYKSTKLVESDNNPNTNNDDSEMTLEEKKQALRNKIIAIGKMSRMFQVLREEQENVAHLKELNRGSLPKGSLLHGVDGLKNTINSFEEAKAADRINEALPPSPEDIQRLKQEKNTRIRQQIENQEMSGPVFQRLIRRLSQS

[20] = NIH-3T3 fibroblast cytotoxicity, dose response, cytotoxicity control, cell-based, fluorescence, Alamar Blue, secondary assay (AID 2327); format: functional;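 further: NIH-3T3 mouse fibroblasts cultured with fluconazole at 8 µg/mL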
[21] = target: 1-phosphatidylinositol 4,5-bisphosphate phosphodiesterase gamma-1 (Homo sapiens, UniProt P19174); assay: Counterscreen for inhibitors of phospholipase C isozymes (PLC-B3): Fluorescence-based biochemical high throughput dose response assay to identify inhibitors of phospholipase C isozymes (PLC-gamma1).
Chain of 1-phosphatidylinositol 4,5-bisphosphate phosphodiesterase gamma-1 (P19174 whole entry): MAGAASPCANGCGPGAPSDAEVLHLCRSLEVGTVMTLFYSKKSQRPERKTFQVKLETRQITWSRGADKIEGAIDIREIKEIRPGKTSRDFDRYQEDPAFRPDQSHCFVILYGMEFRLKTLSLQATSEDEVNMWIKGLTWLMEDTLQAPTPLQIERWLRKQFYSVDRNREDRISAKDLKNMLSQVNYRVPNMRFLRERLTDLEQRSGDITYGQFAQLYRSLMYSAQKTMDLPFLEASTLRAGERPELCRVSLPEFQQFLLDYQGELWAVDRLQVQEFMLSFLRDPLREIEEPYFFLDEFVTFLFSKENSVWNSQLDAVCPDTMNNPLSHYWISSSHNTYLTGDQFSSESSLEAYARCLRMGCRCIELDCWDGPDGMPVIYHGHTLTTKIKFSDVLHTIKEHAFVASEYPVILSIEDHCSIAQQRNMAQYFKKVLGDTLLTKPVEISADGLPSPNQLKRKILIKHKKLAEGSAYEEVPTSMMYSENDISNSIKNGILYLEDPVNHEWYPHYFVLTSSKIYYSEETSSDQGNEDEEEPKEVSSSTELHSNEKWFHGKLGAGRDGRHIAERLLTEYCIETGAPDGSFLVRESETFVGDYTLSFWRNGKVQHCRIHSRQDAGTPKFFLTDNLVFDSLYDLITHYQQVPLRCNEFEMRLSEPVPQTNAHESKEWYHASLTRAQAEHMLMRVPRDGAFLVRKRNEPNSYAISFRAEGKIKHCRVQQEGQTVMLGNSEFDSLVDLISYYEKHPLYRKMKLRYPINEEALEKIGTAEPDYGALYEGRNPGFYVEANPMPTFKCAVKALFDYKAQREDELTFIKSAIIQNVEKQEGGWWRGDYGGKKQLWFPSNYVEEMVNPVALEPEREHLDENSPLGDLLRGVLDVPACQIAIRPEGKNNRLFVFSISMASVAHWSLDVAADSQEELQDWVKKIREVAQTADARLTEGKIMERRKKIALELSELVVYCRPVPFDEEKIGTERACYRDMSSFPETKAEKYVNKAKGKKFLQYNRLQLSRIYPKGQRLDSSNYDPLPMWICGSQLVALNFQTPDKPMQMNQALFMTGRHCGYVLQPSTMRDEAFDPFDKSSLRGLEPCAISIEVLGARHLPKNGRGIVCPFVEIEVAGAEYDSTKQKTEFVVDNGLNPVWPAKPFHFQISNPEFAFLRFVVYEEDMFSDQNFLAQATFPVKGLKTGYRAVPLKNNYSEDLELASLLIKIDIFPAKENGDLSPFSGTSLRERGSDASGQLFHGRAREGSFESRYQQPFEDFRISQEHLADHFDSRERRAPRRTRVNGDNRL

[22] = target: 1-phosphatidylinositol 4,5-bisphosphate phosphodiesterase beta-3 (Homo sapiens, UniProt Q01970); assay: Fluorescence-based biochemical high throughput dose response assay to identify inhibitors of phospholipase C isozymes (PLC-B3).
Chain of 1-phosphatidylinositol 4,5-bisphosphate phosphodiesterase beta-3 (Q01970 whole entry): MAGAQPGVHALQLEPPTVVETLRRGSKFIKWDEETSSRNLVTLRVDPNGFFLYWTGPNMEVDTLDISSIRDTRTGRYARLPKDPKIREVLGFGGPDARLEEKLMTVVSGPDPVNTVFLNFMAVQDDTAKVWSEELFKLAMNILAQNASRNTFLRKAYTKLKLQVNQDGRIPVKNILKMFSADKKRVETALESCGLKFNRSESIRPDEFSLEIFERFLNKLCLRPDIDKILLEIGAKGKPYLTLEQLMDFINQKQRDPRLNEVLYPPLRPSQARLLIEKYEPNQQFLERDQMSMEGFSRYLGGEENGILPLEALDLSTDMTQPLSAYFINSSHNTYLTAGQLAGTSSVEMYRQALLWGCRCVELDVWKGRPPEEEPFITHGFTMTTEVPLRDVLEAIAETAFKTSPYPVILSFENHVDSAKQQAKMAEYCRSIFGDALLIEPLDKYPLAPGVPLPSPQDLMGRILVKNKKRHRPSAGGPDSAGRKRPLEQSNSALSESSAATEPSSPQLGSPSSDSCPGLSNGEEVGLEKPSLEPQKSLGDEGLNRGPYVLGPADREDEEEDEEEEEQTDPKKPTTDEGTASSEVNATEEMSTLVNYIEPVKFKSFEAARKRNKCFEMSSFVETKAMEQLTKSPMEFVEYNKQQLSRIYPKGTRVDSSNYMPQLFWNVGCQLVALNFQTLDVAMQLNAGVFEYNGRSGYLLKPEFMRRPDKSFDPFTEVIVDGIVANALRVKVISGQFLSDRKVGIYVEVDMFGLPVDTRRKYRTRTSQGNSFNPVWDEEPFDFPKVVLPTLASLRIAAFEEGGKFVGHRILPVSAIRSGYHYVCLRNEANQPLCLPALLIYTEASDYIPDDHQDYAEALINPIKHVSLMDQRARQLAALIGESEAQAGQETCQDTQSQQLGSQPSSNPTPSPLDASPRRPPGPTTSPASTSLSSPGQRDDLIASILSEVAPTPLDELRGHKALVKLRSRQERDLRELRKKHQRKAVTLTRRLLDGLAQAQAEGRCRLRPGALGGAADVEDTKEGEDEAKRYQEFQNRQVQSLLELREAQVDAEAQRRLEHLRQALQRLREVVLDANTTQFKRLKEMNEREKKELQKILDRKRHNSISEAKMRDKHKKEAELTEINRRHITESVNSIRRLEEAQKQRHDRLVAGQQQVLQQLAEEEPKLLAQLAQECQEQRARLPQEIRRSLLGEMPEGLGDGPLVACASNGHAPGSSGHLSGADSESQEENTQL

T1 sequence (Q96RJ0 whole entry): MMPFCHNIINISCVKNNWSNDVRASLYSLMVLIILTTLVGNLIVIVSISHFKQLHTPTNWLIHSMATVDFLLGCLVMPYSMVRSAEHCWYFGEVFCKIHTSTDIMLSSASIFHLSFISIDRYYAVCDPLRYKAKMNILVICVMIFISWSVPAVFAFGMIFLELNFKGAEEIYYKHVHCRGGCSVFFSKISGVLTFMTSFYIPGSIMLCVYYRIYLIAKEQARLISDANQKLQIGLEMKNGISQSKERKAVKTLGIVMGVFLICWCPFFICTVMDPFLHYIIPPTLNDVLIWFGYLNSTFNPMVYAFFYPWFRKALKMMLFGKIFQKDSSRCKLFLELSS

SMILES: Cc1ccc(NC(=O)CCN2CCc3ccccc3C2)cc1
- IC50 [1]: 7.46 µM (active)
- EC50 [2]: 1.12 µM (active)
- EC50 (cells [3]): > 29.9 µM (inactive)
- IC50 (cells [4]): > 29.9 µM (inactive)

SMILES: CNC(=O)C[C@H]1CC[C@H]2[C@@H](COc3ccc(NC(=O)Nc4cccc(C#N)c4)cc3C(=O)N2C)O1
- AC50 (HeLa): 27.2 µM (active)

SMILES: CCCCOc1ccc(C(=O)NO)cc1
- IC50 [5]: 11.3 µM (inactive)

SMILES: O=C(CN1CCN(C(=O)C2CCC2)CC1)Nc1ccc(F)cc1
- AC50 (A549): 21.4 µM (active)
- AC50 (Vero): 28.2 µM (active)

SMILES: COc1ccc(-n2c(CN3CCNCC3)nc3ccc([N+](=O)[O-])cc3c2=O)cc1
- IC50 [6]: < 0.218 µM (active)
- IC50 [7]: < 0.22 µM (active)

SMILES: CCCOC(=O)c1ccc(OCC(O)Cn2c(C)nc3ccccc32)cc1 (stereo unspecified)
- EC50 (cells [8]): > 29.9 µM (inactive)
- AC50 [9]: 5.13 µM (active)
- AC50 [10]: 3.38 µM (active)
- IC50 (Galanin receptor type 3): 1.57 µM (active)
- AC50 [11]: 35.6 µM (active)
- AC50 [12]: 0.62 µM (active)
- AC50 [13]: 8.49 µM (active)
- EC50 [14]: 14.6 µM (active)

SMILES: COc1ccc(COc2ccc(C(=O)N3CCC[C@@H](CO)C3)cc2)cc1
- IC50 [15]: 6.84 µM (active)

SMILES: N=C(Cc1ccc(Cl)c(Cl)c1)NOC(=O)c1cccs1
- AC50 [16]: 3.01 µM (active)
- EC50 [17]: 11.6 µM (active)
- EC50 [18]: 0.376 µM (active)
- EC50 [19]: > 180 µM (inactive)
- EC50 [20]: > 160 µM (inconclusive)
- IC50 [21]: > 122 µM (inactive)
- IC50 [22]: > 122 µM (inactive)
